ChEMBL document CHEMBL1201862, “PubChem BioAssay data set” (2004)
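Following 48 hours of exposure in 96-well plates, responses at five concentrations were used to interpolate endpoints linearly. At the GI50, growth is halved.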 The source made the active and inactive calls. Rule as the data show it: active = GI50 up to about 1.1 µM and inactive = higher.

Experiments:
Experiment in all cases: NCI anticancer screen, dose series, 48 h
Malme-3M = test system: Malme-3M
LOX IMVI = test system: LOX IMVI
EKVX = test system: EKVX
786-0 = test system: 786-0
UACC-257 = test system: UACC-257
HT-29 = test system: HT-29
Hs-578T = test system: Hs-578T
MDA-MB-435 = test system: MDA-MB-435
RXF 393 = test system: RXF 393
OVCAR-8 = test system: OVCAR-8
DU-145 = test system: DU-145
HCC 2998 = test system: HCC 2998
SK-MEL-2 = test system: SK-MEL-2
UACC-62 = test system: UACC-62
HL-60 = test system: HL-60
CAKI-1 = test system: CAKI-1
M14 = test system: M14
BT-549 = test system: BT-549
NCI-H226 = test system: NCI-H226
PC-3 = test system: PC-3

Row | SMILES | GI50 (Malme-3M) | GI50 (LOX IMVI) | GI50 (EKVX) | GI50 (786-0) | GI50 (UACC-257) | GI50 (HT-29) | GI50 (Hs-578T) | GI50 (MDA-MB-435) | GI50 (RXF 393) | GI50 (OVCAR-8) | GI50 (DU-145) | GI50 (HCC 2998) | GI50 (SK-MEL-2) | GI50 (UACC-62) | GI50 (HL-60) | GI50 (CAKI-1) | GI50 (M14) | GI50 (BT-549) | GI50 (NCI-H226) | GI50 (PC-3)
1 | C=C1CC2OC2(C(=O)O[C@H]2CCC3[C@@H]4CCC5=CC(=O)CC[C@]5(C)C4CC[C@@]32C)C1=O (stereo partly drawn) | 6.56 µM (inactive) | 7.94 µM (inactive) | 25.5 µM (inactive) | 2.04 µM (inactive) | 8.05 µM (inactive) | 8.34 µM (inactive) | 16.8 µM (inactive) | 12.7 µM (inactive) | 4.43 µM (inactive) | 7.59 µM (inactive) | 17.8 µM (inactive) | 31.6 µM (inactive) | 6.07 µM (inactive) | 14.6 µM (inactive) | 0.83 µM (active) | 11.9 µM (inactive) | 7.23 µM (inactive) | 15.3 µM (inactive) | 22.9 µM (inactive) | –
2 | COC(=O)c1cc2ccc(O)c(O)c2cn1 | 14.4 µM (inactive) | 1.96 µM (inactive) | 21.4 µM (inactive) | 2.7 µM (inactive) | 15.4 µM (inactive) | > 10 µM (inactive) | – | 1.73 µM (inactive) | 18 µM (inactive) | 13.9 µM (inactive) | 67.8 µM (inactive) | > 10 µM (inactive) | 18.1 µM (inactive) | 2.41 µM (inactive) | 3.36 µM (inactive) | 13 µM (inactive) | 18.5 µM (inactive) | > 10 µM (inactive) | 18.2 µM (inactive) | 24.9 µM (inactive)
3 | CNC(=O)N1N[C@H](c2ccccc2)[C@@H]1c1ccccc1.OB(O)O | 19.7 µM (inactive) | 18 µM (inactive) | 22.2 µM (inactive) | 32.4 µM (inactive) | 35.9 µM (inactive) | 16.4 µM (inactive) | 22.5 µM (inactive) | – | 14.2 µM (inactive) | 14.5 µM (inactive) | – | 31 µM (inactive) | 15.3 µM (inactive) | 13.2 µM (inactive) | 23.7 µM (inactive) | 32.7 µM (inactive) | 21.9 µM (inactive) | 19.3 µM (inactive) | 16.7 µM (inactive) | 28.1 µM (inactive)
4 | CCSc1nnc2c(-c3ccccc3)n[nH]c2n1 | – | > 100 µM (inactive) | 16 µM (inactive) | 86.7 µM (inactive) | > 100 µM (inactive) | > 100 µM (inactive) | 30.4 µM (inactive) | > 100 µM (inactive) | > 100 µM (inactive) | 66.8 µM (inactive) | > 100 µM (inactive) | – | > 100 µM (inactive) | > 100 µM (inactive) | > 100 µM (inactive) | > 100 µM (inactive) | > 100 µM (inactive) | > 100 µM (inactive) | > 100 µM (inactive) | > 100 µM (inactive)
5 | C/C(=N\c1ccc(N(C)C)cc1)c1ccccc1 | 10.9 µM (inactive) | – | 72.3 µM (inactive) | 19.8 µM (inactive) | > 10 µM (inactive) | 30.5 µM (inactive) | 22.1 µM (inactive) | – | 5.35 µM (inactive) | 35.4 µM (inactive) | 34.9 µM (inactive) | 44.6 µM (inactive) | 11.2 µM (inactive) | 17.1 µM (inactive) | 16.4 µM (inactive) | 19.8 µM (inactive) | 16.3 µM (inactive) | 18.9 µM (inactive) | 76.2 µM (inactive) | 23.4 µM (inactive)
6 | CCOC(=O)c1ccc(NCC#CCN2CCOCC2)cc1 | > 100 µM (inactive) | > 100 µM (inactive) | 57.9 µM (inactive) | > 100 µM (inactive) | – | 69.2 µM (inactive) | > 100 µM (inactive) | > 100 µM (inactive) | > 100 µM (inactive) | – | > 100 µM (inactive) | – | > 100 µM (inactive) | 34.8 µM (inactive) | 48.1 µM (inactive) | – | 29.7 µM (inactive) | > 100 µM (inactive) | 70.3 µM (inactive) | > 100 µM (inactive)
